Laboratory results reported in US10300052B2, “Methods for increasing CFTR activity” (THE UAB RESEARCH FOUNDATION, priority 2012, dated 2019).
“Also recorded” adds a separate entry of the source.

Tested on: HBE cells
Assay: μOCT imaging of airway epithelial function in HBE cells containing WT-CFTR
Type: cell-based, human
Protocol: ASL depth is shown as red bar. White scale bar=10 μm.
FIGS. 4A-4D show the effects of CFTR activators on airway epithelial function in human bronchial epithelial cells by μOCT. Control HBE cells containing a defective CFTR (designated control, CF) and HBE cells containing a WT-CFTR (designated control and VX-770, wild-type) received vehicle alone (control; 0.2% DMSO) or ivacaftor (10 μM). FIGS. 4A-4D show ASL depth (FIG. 4A), PCL depth (FIG. 4B), cilia beat frequency (FIG. 4C), and mucociliary transport (MCT) rate (FIG. 4D) as quantified from μOCT images.
FIGS. 5A-5D show the effects of CFTR activators on airway epithelial function in human bronchial epithelial cells by μOCT. […] CSE was applied apically and ivacaftor basolaterally. Cells were exposed to each condition for 24 hrs. ASL depth is shown as a dark bar. White scale bar=10 μm. FIGS. 5B-5D show ASL depth (FIG. 5B), cilia beat frequency (FIG. 5C), and mucociliary transport (MCT) rate (FIG. 5D) as quantified from μOCT images. Data are derived from 5 measures per well, and 3 wells per condition.
The effect of CFTR activators was evaluated using μOCT imaging in HBE cells (FIGS. 4A-4D). […] Mucus and the PCL layer that together comprise the airway surface liquid (ASL) layer can also be clearly visualized. As shown in FIGS. 4A-4D, from top to bottom, the air has no μOCT signal, while the mucus layer appears heterogeneous with high μOCT signal intensity. The PCL gel has a low μCT signal intensity compared with the mucus and monolayer and includes ciliary structures. The air-liquid interface, mucus-PCL interface, and apical cell surface are clearly defined so that ASL and PCL heights can be directly measured with submicrometer resolution. In addition to the different layers, cilia tips can be readily detected by μOCT, as they are brighter than the surrounding PCL and mucus. The tips maintain contact with the deep surface of mucus blanket and lift the mucus nearby by a few hundred nanometers during the effective stroke.
The results in this example, illustrated in FIGS. 4A-4D, confirm the results shown above that CFTR activators increase the activity of WT-CFTR. In FIGS. 4A-4D, control HBE cells containing a defective CFTR (designated control, CF) were used along with HBE cells containing a WT-CFTR (designated control and VX-770, wild-type). Control cells received vehicle alone (0.2% DMSO); ivacaftor was used in all cases at 10 μM. […] In terms of PCL depth, the PCL only extends approximately 7 microns (corresponding to the depth of the full length cilia); further increases are difficult to detect. For CBF, the rate of CBF may not be rate limiting in all conditions. For example, if the cilia were beating against thick mucus (caused for example by mucus overproduction or the inability to clear mucus normally), the CBF would be slower. However, in this assays the determination of CBF is made versus a normal control making meaning an increase in CBF may not be detected in all cases.
Data in FIGS. 5A-5D are derived from 5 measurements per well, with three wells per condition. In FIGS. 5A-5D, all cells contained WT-CFTR; control cells received DMSO vehicle ([…]), CSE indicates cells received 2% CSE extract administered apically; CSE indicates cells received 2% CSE extract administered apically and 10 μM ivacaftor administered basolaterally; VX-770 indicates cells received 10 μM ivacaftor administered basolaterally. All data were derived from μOCT images as described herein.
The μOCT system is a spectral-domain OCT implementation with several improvements to standard OCT that yield high resolution in both lateral and axial directions. The general layout and axial resolution characterization have been described (Liu et al., PLOSOne, 8(1), E54473-2013). A super-continuum source (Fianium SC450) provides the high-bandwidth, short coherence length light necessary for high axial resolution ([…]). […]

CC(C)(C)c1cc(C(C)(C)C)c(NC(=O)c2c[nH]c3ccccc3c2=O)cc1O [ivacaftor] was tested, and the MCT (2% CSE apically plus ivacaftor 10 μM basolaterally, 24 hrs (FIG. 5D)) was “increased MCT to that seen in the control cells”, the ASL depth (2% CSE apically plus ivacaftor 10 μM basolaterally, 24 hrs, vs CSE (FIG. 5B)) was “significantly increased” and the PCL depth (ivacaftor 10 μM, as compared to control CF HBE cells (FIG. 4B)) was “increased”. The CBF (ivacaftor 10 μM, as compared to control CF HBE cells (FIG. 4C)) was “increased”, the “overall MCT” value (ivacaftor 10 μM, as compared to control wild-type and control CF cells (FIG. 4D)) was “increased significantly” and the PCL depth (ivacaftor 10 μM, in comparison to control wild-type (FIG. 4B)) was “not increased in a statistically significant manner”. The CBF (ivacaftor 10 μM, in comparison to control wild-type (FIG. 4C)) was “not increased in a statistically significant manner”, the ASL depth (ivacaftor 10 μM, vs control wild-type and control CF HBE cells (FIG. 4A)) was “increased ASL depth significantly above control” and the ASL depth (ivacaftor alone 10 μM basolaterally, 24 hrs, vs control (FIG. 5B)) was “significantly increased”. For the same compound, the MCT (ivacaftor alone 10 μM basolaterally, 24 hrs, vs control (FIG. 5D, FIG. 2D)) was “robust enhancement; also recorded: significantly increased”.
